The values below are quoted from earlier work in PMC6429159, “Evolution and Biological Evaluation of Matrinic Derivatives with Amantadine Fragments As New Anti-Influenza Virus Agents” (Molecules, 2019).

The term pIC50 denotes −log10 of the IC50, conventionally taken in molar units.

Molecules are shown by their SMILES. pIC50: −log10 of the molar value.

In this data set the test system is influenza virus A/hanfang/359/95 (H3N2). Also on record: method as in PMID 29473520. The note with it: lead 1, value of previous study; read-out: Anti-H3N2 IC50; cited from earlier work.

Turning to `CCCCC1C2CCCN3CCCC(CN1Cc1ccc(C(=O)O)cc1)C23` (stereo not shown) [Compound 1, 12N-p-carboxybenzyl matrinic butane], the pIC50 was 4.79.
